# Assay results: US20120196927A1, “PROPHYLACTIC AND/OR THERAPEUTIC AGENT FOR METABOLIC SYNDROME” (priority 2009, published 2012)
# How the values were obtained:
# Format in all cases: in vivo, mouse
# [1] = system: adipose cells of the white adipose tissue; test: Diabetes model mice: size of adipose cells of the white adipose tissue; conditions: 200 mg/kg of nobiletin
# [2] = system: adipose cells of the white adipose tissue; test: Nobiletin, obesity-induced mice: size of the adipose cells; conditions: epididymis adipose tissue sections
# Excerpt: After the completion of the experiment, the adipose tissue of mice epididymis was excised to prepare sections to stain by using both of hematoxylin and eosin (n=9). These sections were observes under the microscope with 200-fold magnification to compare cell seizes in the field of photomicroscope vision.
# [3] = system: GLUT4, Adiponectin, TNF-α, MCP-1, IL-6, PPARγ, aP2, LPL, Perilipin genes; test: Diabetes model mice: mRNA expression in the white adipose tissue (real time RT-PCR); conditions: ob/ob mice, Vehicle = 1.00, nobiletin 200 mg/kg/day, Pioglitazone 30 mg/kg/day, 5 weeks
# Description: (§1) The effects by nobiletin ingestion to the mRNA expression in the white adipose tissue and the liver were measured (n=10).
# (§2) After the termination of the administration period for 5 weeks, mRNA expression levels of respective genes shown in the table 10 were determined by using real time RT-PCR method. The real time RT-PCR was carried out according to an operation manual provided by ISOGEN (NIPPON GENE CO., LTD); RNA was extracted from the white adipose tissue and the liver. Next, cDNA was prepared from using 1 μg of RNA by using Reverse Transcription System kit (Promega Corp., USA). Next, suitable primers for the above-mentioned genes were prepared according to the operation manual provided by FastStart universal SYBR (a registered trademark) Greenmaster PCR KIT agent (Roche Diagnostics K. K., Germany).
# (§3) Real time PCR system 7700HT (Applied Biosytems, USA) was used for the determination to carry out the real time PCR by using the cDNAs as templates. Each reaction conditions were set according to the manual of the PCR KIT. Quantitative analysis of the RNA amount was carried out based on comparative Ct method by using glyceraldehyde 3-phosphate dehydrogenase (GAPDH) as the standard reference.
# [4] = system: SREBP1-c, SCD1, FAS, ACC1, DGAT1, GLUT4, Adiponectin, TNF-α, MCP-1, PPARγ genes; test: Nobiletin, obesity-induced mice: gene expression in the white adipose tissue (mRNA)
# Description: mRNA expression level was determined by using real time PCR as follows. According to the direction attached with ISOGEN (Nippon Gene Co., Ltd), RNA was extracted from white adipose tissue, liver, and skeletal muscle. Next, cDNA was prepared from 1 μg of RNA by using Reverse Transcription System kit (Promega, USA). Subsequently, according to the direction attached with FastStart universal SYBR (Registered trademark) Greenmaster PCR kit reagent (Roche Diagnostics, Germany), primers suitable for each intended gene in the following experiments were synthesized. Real time PCR system 7700 HT (Applied Biosytems, USA) was used for the measurement, the cDNA was used as templates for the real time PCR. Reaction conditions were followed to those for the PCR kit reagents. Quantitative analysis of RNA level was performed by Comparison Ct method, using glyceraldehyde 3-phosphate dehydrogenase (GAPDH) as the standard.
# The expression of mouse lipid biosynthesis-related gene and other gene shown in the following table 24 after obesity induction by ingesting the high fat diet were determined as mRNA levels to study the effects of nobiletin to these gene expression (n=9). The expression levels of each gene were shown in the ratio when those of the HFD were 1.
# [5] = system: gluconeogenesis-related genes PEPCK, G6Pase; test: Diabetes model mice: mRNA expression in the liver (real time RT-PCR); conditions: ob/ob mice, Vehicle = 1.00, nobiletin 200 mg/kg/day, Pioglitazone 30 mg/kg/day, 5 weeks
# Description: as §1, §2, §3
# [6] = system: GLUT4 protein; test: Diabetes model mice: GLUT4 protein expression level (Western blotting); conditions: ob/ob mice, nobiletin 200 mg/kg/day, Pioglitazone 30 mg/kg/day
# Description: After finishing the experiment, the white adipose tissue and skeletal muscle were excised according to that described in the example 1, protein expression level of GLUT 4 were detected by using Western blotting method. The expression levels of GLUT4 protein were determined by using Na^+/K^+ ATPase α-1 protein as an internal reference.
# [7] = system: male C57BL/6 mice; test: Nobiletin, obesity-induced mice: blood lipid, glucose and adiponectin level; conditions: HFD; for Adipo *2 (Relative level of adiponectin): blood adiponectin to total weight of the white adipose tissue
# Description: After the completion of the experiment, the levels of the blood neutral fat, total cholesterol, glucose, and adiponectin in the fating state, and those of the blood neutral fat, total cholesterol, and glucose in satiety state were determined as the same as those in the Example 1. In the table 22, relative adiponectin level means the ratio of specific level of the blood adiponectin to the total weight of the white adipose tissue.
# [8] = ratio HFD = 1, nobiletin 10 mg/kg/day p.o. 5 weeks
# [9] = ratio HFD = 1, nobiletin 100 mg/kg/day p.o. 5 weeks
# [10] = Western blotting, Vehicle = 1.00, 5 weeks
# [11] = Fasting state, nobiletin 10 mg/kg/day p.o. 5 weeks
# [12] = Fasting state, nobiletin 100 mg/kg/day p.o. 5 weeks
# [13] = Satiety state, nobiletin 10 mg/kg/day p.o. 5 weeks
# [14] = Satiety state, nobiletin 100 mg/kg/day p.o. 5 weeks
smiles,measurement,setting,value
COc1ccc(-c2cc(=O)c3c(OC)c(OC)c(OC)c(OC)c3o2)cc1OC [nobiletin],shrinking of enlarged adipose cells of the white adipose tissue,[1],fails to shrink the adipose cells
same,adipose cell size compared with HFD group,[2]; nobiletin 10 mg/kg/day p.o. 5 weeks,not large difference
same,adipose cell size compared with HFD group,[2]; nobiletin 100 mg/kg/day p.o. 5 weeks,became smaller
same,"Gene expression level (ratio), [W]Adiponectin",[3],1.54 ± 0.04
same,"Gene expression level (ratio), [W]GLUT4",[3],1.88 ± 0.12
same,"Gene expression level (ratio), [W]IL-6",[3],0.55 ± 0.03
same,"Gene expression level (ratio), [W]LPL",[3],1.50 ± 0.18
same,"Gene expression level (ratio), [W]MCP-1",[3],0.64 ± 0.02
same,"Gene expression level (ratio), [W]PPARγ",[3],1.79 ± 0.02
same,"Gene expression level (ratio), [W]Perilipin",[3],1.61 ± 0.17
same,"Gene expression level (ratio), [W]TNF-α",[3],0.80 ± 0.048
same,"Gene expression level (ratio), [W]aP2",[3],1.10 ± 0.01
same,"Expression level, ACC1",[4]; [8],2.06 ± 0.05
same,"Expression level, Adiponectin",[4]; [8],1.97 ± 0.09
same,"Expression level, DGAT1",[4]; [8],2.17 ± 0.19
same,"Expression level, FAS",[4]; [8],2.78 ± 0.06
same,"Expression level, GLUT4",[4]; [8],1.34 ± 0.09
same,"Expression level, MCP-1",[4]; [8],0.44 ± 0.02
same,"Expression level, PPARγ",[4]; [8],1.61 ± 0.11
same,"Expression level, SCD1",[4]; [8],2.30 ± 0.06
same,"Expression level, SREBP1-c",[4]; [8],2.15 ± 0.21
same,"Expression level, TNF-α",[4]; [8],1.06 ± 0.12
same,"Expression level, ACC1",[4]; [9],1.69 ± 0.07
same,"Expression level, Adiponectin",[4]; [9],2.02 ± 0.08
same,"Expression level, DGAT1",[4]; [9],1.80 ± 0.14
same,"Expression level, FAS",[4]; [9],2.50 ± 0.03
same,"Expression level, GLUT4",[4]; [9],1.35 ± 0.07
same,"Expression level, MCP-1",[4]; [9],0.35 ± 0.01
same,"Expression level, PPARγ",[4]; [9],1.36 ± 0.05
same,"Expression level, SCD1",[4]; [9],2.95 ± 0.17
same,"Expression level, SREBP1-c",[4]; [9],1.53 ± 0.20
same,"Expression level, TNF-α",[4]; [9],0.58 ± 0.14
same,"Gene expression level (ratio), [L]G6Pase",[5],0.29 ± 0.01
same,"Gene expression level (ratio), [L]PEPCK",[5],0.34 ± 0.03
same,"Gene expression level (ratio), Skeletal muscle (GLUT4 protein)",[6]; [10],6.32
same,"Gene expression level (ratio), White adipose tissue (GLUT4 protein)",[6]; [10],1.75
same,"GLUT4 protein expression amount in the skeletal muscle, times higher than vehicle administration group",[6],about 6 times
same,"GLUT4 protein expression level in the white adipose tissue, times higher than vehicle administration group",[6],1.7 times
same,"Blood level, Adipo *1 (adiponectin)",[7]; [11],7.19 ± 0.82 µg/mL
same,"Blood level, Glucose",[7]; [11],157.47 ± 10.54 mg/dL
same,"Blood level, T-CHO",[7]; [11],109.88 ± 9.09 mg/dL
same,"Blood level, TG",[7]; [11],79.99 ± 8.04 mg/dL
same,"Blood level, Adipo *1 (adiponectin)",[7]; [12],6.96 ± 0.99 µg/mL
same,"Blood level, Glucose",[7]; [12],128.49 ± 5.59 mg/dL
same,"Blood level, T-CHO",[7]; [12],131.55 ± 8.63 mg/dL
same,"Blood level, TG",[7]; [12],78.69 ± 6.57 mg/dL
same,"Blood level, Glucose",[7]; [13],224 ± 24.67 mg/dL
same,"Blood level, T-CHO",[7]; [13],147.47 ± 10.40 mg/dL
same,"Blood level, TG",[7]; [13],141.05 ± 12.25 mg/dL
same,"Blood level, Glucose",[7]; [14],224.76 ± 21.88 mg/dL
same,"Blood level, T-CHO",[7]; [14],169.24 ± 6.03 mg/dL
same,"Blood level, TG",[7]; [14],100.80 ± 14.95 mg/dL
same,Adipo *2 (Relative level of adiponectin),"[7]; Fasting state, nobiletin 10 mg/kg/day p.o.",3.87 ± 0.86 µg/mL/g
same,Adipo *2 (Relative level of adiponectin),"[7]; Fasting state, nobiletin 100 mg/kg/day p.o.",5.34 ± 0.97 µg/mL/g
